{"source": "ChEMBL document CHEMBL2390888", "about": "“Identification and synthesis of N-(thiophen-2-yl) benzamide derivatives as BRAF(V600E) inhibitors” (Bioorg Med Chem Lett, 2013)", "key": {"[1]": {"tested_on": "Serine/threonine-protein kinase B-raf (Homo sapiens), P15056 [V600E]", "sequence (P15056 whole entry V600E)": "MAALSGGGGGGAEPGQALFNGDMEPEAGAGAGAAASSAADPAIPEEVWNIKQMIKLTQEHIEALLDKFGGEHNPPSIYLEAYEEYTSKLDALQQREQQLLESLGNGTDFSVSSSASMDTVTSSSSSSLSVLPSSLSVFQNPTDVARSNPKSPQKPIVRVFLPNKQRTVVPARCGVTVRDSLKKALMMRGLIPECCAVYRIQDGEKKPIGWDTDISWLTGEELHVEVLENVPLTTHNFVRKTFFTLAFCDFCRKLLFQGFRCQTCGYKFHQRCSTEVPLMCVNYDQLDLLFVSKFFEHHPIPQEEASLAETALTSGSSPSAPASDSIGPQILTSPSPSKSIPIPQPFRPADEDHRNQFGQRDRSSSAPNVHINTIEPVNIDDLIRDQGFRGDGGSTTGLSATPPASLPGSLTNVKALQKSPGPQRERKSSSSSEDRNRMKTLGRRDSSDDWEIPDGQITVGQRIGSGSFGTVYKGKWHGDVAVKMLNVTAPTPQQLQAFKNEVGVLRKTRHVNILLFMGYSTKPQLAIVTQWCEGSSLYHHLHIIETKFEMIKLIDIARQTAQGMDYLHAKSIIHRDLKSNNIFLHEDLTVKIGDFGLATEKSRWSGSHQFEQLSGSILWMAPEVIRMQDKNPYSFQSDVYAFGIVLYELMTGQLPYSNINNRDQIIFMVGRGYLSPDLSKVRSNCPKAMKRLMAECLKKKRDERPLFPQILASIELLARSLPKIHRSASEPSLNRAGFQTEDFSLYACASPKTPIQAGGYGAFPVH", "assay": "Inhibition of BRAF V600E mutant (unknown origin) assessed as inhibition of MEK phosphorylation at 2 uM by ELISA relative to control"}, "[2]": {"tested_on": "Serine/threonine-protein kinase B-raf (Homo sapiens), P15056 [V600E]", "assay": "Inhibition of BRAF V600E mutant (unknown origin) assessed as inhibition of MEK phosphorylation at 1 uM by ELISA relative to control"}, "[3]": {"target": "Serine/threonine-protein kinase B-raf (Homo sapiens, UniProt P15056, V600E)", "sequence (P15056 2-766 V600E limits assumed)": "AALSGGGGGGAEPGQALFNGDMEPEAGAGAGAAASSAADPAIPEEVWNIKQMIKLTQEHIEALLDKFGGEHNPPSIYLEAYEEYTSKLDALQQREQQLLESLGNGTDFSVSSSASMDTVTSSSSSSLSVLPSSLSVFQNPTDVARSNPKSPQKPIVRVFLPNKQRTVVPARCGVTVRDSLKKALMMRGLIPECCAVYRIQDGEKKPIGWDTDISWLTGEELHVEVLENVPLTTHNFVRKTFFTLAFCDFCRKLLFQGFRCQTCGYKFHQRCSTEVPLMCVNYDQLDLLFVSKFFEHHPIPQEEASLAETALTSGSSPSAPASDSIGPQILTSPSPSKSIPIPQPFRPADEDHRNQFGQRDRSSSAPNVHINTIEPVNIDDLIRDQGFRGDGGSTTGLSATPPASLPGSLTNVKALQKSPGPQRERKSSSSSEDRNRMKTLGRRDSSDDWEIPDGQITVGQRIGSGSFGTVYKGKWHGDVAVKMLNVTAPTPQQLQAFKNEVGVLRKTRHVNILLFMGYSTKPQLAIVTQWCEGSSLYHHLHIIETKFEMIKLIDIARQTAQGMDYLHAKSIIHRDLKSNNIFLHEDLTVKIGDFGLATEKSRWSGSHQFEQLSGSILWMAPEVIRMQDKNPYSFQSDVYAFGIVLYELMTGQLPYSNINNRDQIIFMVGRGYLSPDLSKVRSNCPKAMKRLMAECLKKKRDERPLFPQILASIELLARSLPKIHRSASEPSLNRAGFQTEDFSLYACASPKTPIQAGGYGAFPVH", "assay": "Inhibition of BRAF V600E mutant (unknown origin) assessed as inhibition of MEK phosphorylation by ELISA"}}, "note": "Active and inactive are the calls of the source. No cut-off for these calls is given here."}
{"smiles": "CCOC(=O)c1sc(NC(=O)c2ccccc2F)c(C(N)=O)c1C", "values": [{"measurement": "inhibition", "setting": "[1]", "result": "inactive"}]}
{"smiles": "CCOC(=O)c1sc(NC(=O)c2cccnc2)c(C#N)c1C", "values": [{"measurement": "inhibition", "setting": "[2]", "result": 20, "unit": "%"}]}
{"smiles": "CCOC(=O)c1sc(NC(=O)c2ccco2)c(C#N)c1C", "values": [{"measurement": "inhibition", "setting": "[1]", "result": "inactive"}]}
{"smiles": "CCCOC(=O)c1c(NC(=O)c2ccccc2F)sc(C(=O)OCC)c1C", "values": [{"measurement": "inhibition", "setting": "[1]", "result": "inactive"}]}
{"smiles": "Cc1c(C(=O)OC(C)C)sc(NC(=O)c2ccc(Cl)c(Cl)c2)c1C#N", "values": [{"measurement": "inhibition", "setting": "[1]", "result": 42, "unit": "%"}]}
{"smiles": "CCOC(=O)c1sc(NC(=O)c2ccc(Cl)cc2)c(C(N)=O)c1C", "values": [{"measurement": "inhibition", "setting": "[1]", "result": 26, "unit": "%"}]}
{"smiles": "CCOC(=O)c1sc(NC(=O)c2ccccn2)c(C#N)c1C", "values": [{"measurement": "inhibition", "setting": "[2]", "result": 39, "unit": "%"}]}
{"smiles": "CCOC(=O)c1sc(NC(=O)c2cccc(Cl)c2)c(C#N)c1C", "values": [{"measurement": "inhibition", "setting": "[1]", "result": 57, "unit": "%"}]}
{"smiles": "CCOC(=O)c1sc(NC(=O)c2ccc(C(C)(C)C)cc2)c(C#N)c1C", "values": [{"measurement": "inhibition", "setting": "[1]", "result": 46, "unit": "%"}]}
{"smiles": "CCOC(=O)c1sc(NC(=O)c2ccc(OC)c(OC)c2)c(C#N)c1C", "values": [{"measurement": "inhibition", "setting": "[1]", "result": 32, "unit": "%"}]}
{"smiles": "CCCS(=O)(=O)Nc1cc(F)c(C(=O)Nc2sc(C(=O)OCC)c(C)c2C#N)c(F)c1", "values": [{"measurement": "inhibition", "setting": "[2]", "result": 34, "unit": "%"}]}
{"smiles": "COC(=O)c1sc(NC(=O)c2ccccc2OC)c(C#N)c1C", "values": [{"measurement": "inhibition", "setting": "[1]", "result": "inactive"}]}
{"smiles": "CCOC(=O)c1sc(NC(=O)c2cc(OC)cc(OC)c2)c(C#N)c1C", "values": [{"measurement": "inhibition", "setting": "[2]", "result": 60, "unit": "%"}, {"measurement": "inhibition", "setting": "[1]", "result": 85, "unit": "%"}, {"measurement": "IC50", "setting": "[3]", "result": 770, "unit": "nM"}]}
{"smiles": "CCOC(=O)c1sc(NC(=O)c2ccc(Cl)c(C(F)(F)F)c2)c(C#N)c1C", "values": [{"measurement": "inhibition", "setting": "[1]", "result": 60, "unit": "%"}]}
{"smiles": "CCOC(=O)c1sc(NC(=O)c2ccccc2)c(C(=O)OCC)c1C", "values": [{"measurement": "inhibition", "setting": "[1]", "result": "inactive"}]}
{"smiles": "CCOC(=O)c1sc(NC(=O)c2ccc(Br)cc2)c(C#N)c1C", "values": [{"measurement": "inhibition", "setting": "[1]", "result": "inactive"}]}
{"smiles": "CCOc1ccc(C(=O)Nc2sc(C(=O)OC(C)C)c(C)c2C#N)cc1", "values": [{"measurement": "inhibition", "setting": "[1]", "result": "inactive"}]}
{"smiles": "CCOC(=O)c1sc(NC(=O)c2ccccc2F)c(C#N)c1C", "values": [{"measurement": "inhibition", "setting": "[1]", "result": 51, "unit": "%"}]}
{"smiles": "CCOC(=O)c1sc(NC(=O)c2ccccc2Cl)c(C#N)c1C", "values": [{"measurement": "inhibition", "setting": "[1]", "result": "inactive"}]}
{"smiles": "CCOC(=O)c1sc(NC(=O)c2ccc(C(=O)OC)cc2)c(C#N)c1C", "values": [{"measurement": "inhibition", "setting": "[1]", "result": 54, "unit": "%"}]}
{"smiles": "CCOC(=O)c1sc(NC(=O)c2ccc(C)cc2)c(C#N)c1C", "values": [{"measurement": "inhibition", "setting": "[1]", "result": 48, "unit": "%"}]}
{"smiles": "CCOC(=O)c1sc(NC(=O)c2ccc(OC)cc2)c(C#N)c1C", "values": [{"measurement": "inhibition", "setting": "[1]", "result": 15, "unit": "%"}]}
{"smiles": "CCOC(=O)c1sc(NC(=O)c2ccccc2C)c(C#N)c1C", "values": [{"measurement": "inhibition", "setting": "[1]", "result": 52, "unit": "%"}, {"measurement": "IC50", "setting": "[3]", "result": 2010, "unit": "nM"}]}
{"smiles": "Cc1c(C(=O)OC(C)C)sc(NC(=O)c2ccc(F)cc2)c1C#N", "values": [{"measurement": "inhibition", "setting": "[1]", "result": "inactive"}]}
{"smiles": "COC(=O)c1sc(NC(=O)c2cccc(C)c2)c(C#N)c1C", "values": [{"measurement": "inhibition", "setting": "[1]", "result": "inactive"}]}
{"smiles": "O=C1NC(=S)NC(=O)C1=Cc1ccc(-c2ccc(Br)cc2)o1", "values": [{"measurement": "IC50", "setting": "[3]", "result": 470, "unit": "nM"}]}
{"smiles": "CCOC(=O)c1sc(NC(=O)c2cccc(C)c2)c(C#N)c1C", "values": [{"measurement": "inhibition", "setting": "[1]", "result": 50, "unit": "%"}]}
{"smiles": "CCOC(=O)c1sc(NC(=O)c2ccncc2)c(C#N)c1C", "values": [{"measurement": "inhibition", "setting": "[2]", "result": 22, "unit": "%"}]}
{"smiles": "CCOC(=O)c1sc(NC(=O)c2cccc(OC)c2)c(C#N)c1C", "values": [{"measurement": "inhibition", "setting": "[1]", "result": 13, "unit": "%"}]}
{"smiles": "CCOC(=O)c1sc(NC(=O)c2ccc(NS(C)(=O)=O)cc2)c(C#N)c1C", "values": [{"measurement": "inhibition", "setting": "[2]", "result": "inactive"}]}
{"smiles": "COC(=O)c1sc(NC(=O)c2cc(OC)cc(OC)c2)c(C#N)c1C", "values": [{"measurement": "inhibition", "setting": "[1]", "result": "inactive"}]}
{"smiles": "CCOC(=O)c1sc(NC(=O)c2ccccc2I)c(C(=O)OC)c1C", "values": [{"measurement": "inhibition", "setting": "[1]", "result": "inactive"}]}
{"smiles": "CCOC(=O)c1sc(NC(=O)c2ccccc2NS(C)(=O)=O)c(C#N)c1C", "values": [{"measurement": "inhibition", "setting": "[2]", "result": "inactive"}]}
{"smiles": "CCOC(=O)c1sc(NC(=O)c2ccc(N3CCN(C)CC3)cc2)c(C#N)c1C", "values": [{"measurement": "inhibition", "setting": "[1]", "result": "inactive"}]}
{"smiles": "CCOC(=O)c1sc(NC(=O)c2ccccc2OC)c(C#N)c1C", "values": [{"measurement": "inhibition", "setting": "[1]", "result": 42, "unit": "%"}]}
{"smiles": "CCOC(=O)c1sc(NC(=O)c2ccc(Cl)nc2)c(C#N)c1C", "values": [{"measurement": "inhibition", "setting": "[2]", "result": 10, "unit": "%"}]}
{"smiles": "CCOC(=O)c1sc(NC(=O)c2cccc(C#N)c2)c(C#N)c1C", "values": [{"measurement": "inhibition", "setting": "[1]", "result": 40, "unit": "%"}]}
{"smiles": "CCOC(=O)c1sc(NC(=O)c2ccc(Cl)c(F)c2)c(C#N)c1C", "values": [{"measurement": "inhibition", "setting": "[1]", "result": 59, "unit": "%"}]}
{"smiles": "CCOC(=O)c1sc(NC(=O)c2ccc(OCC)cc2)c(C#N)c1C", "values": [{"measurement": "inhibition", "setting": "[1]", "result": 69, "unit": "%"}, {"measurement": "IC50", "setting": "[3]", "result": 1160, "unit": "nM"}]}
{"smiles": "CCOC(=O)c1sc(NC(=O)c2cccc(NC(C)=O)c2)c(C#N)c1C", "values": [{"measurement": "inhibition", "setting": "[2]", "result": 17, "unit": "%"}]}
{"smiles": "CCOC(=O)c1sc(NC(=O)c2cccc(NS(C)(=O)=O)c2)c(C#N)c1C", "values": [{"measurement": "inhibition", "setting": "[2]", "result": "inactive"}]}
{"smiles": "CCOC(=O)c1sc(NC(=O)c2ccc(Cl)c([N+](=O)[O-])c2)c(C#N)c1C", "values": [{"measurement": "inhibition", "setting": "[1]", "result": 51, "unit": "%"}, {"measurement": "IC50", "setting": "[3]", "result": 2160, "unit": "nM"}]}
{"smiles": "CCOC(=O)c1sc(NC(=O)c2cccc([N+](=O)[O-])c2)c(C#N)c1C", "values": [{"measurement": "inhibition", "setting": "[1]", "result": 36, "unit": "%"}]}
{"smiles": "CCOC(=O)c1sc(NC(=O)c2ccc(NC(C)=O)cc2)c(C#N)c1C", "values": [{"measurement": "inhibition", "setting": "[2]", "result": "inactive"}]}
{"smiles": "CCOC(=O)c1sc(NC(=O)c2ccc(Cl)c(Cl)c2)c(C#N)c1C", "values": [{"measurement": "inhibition", "setting": "[1]", "result": 36, "unit": "%"}]}
{"smiles": "CCOC(=O)c1sc(NC(=O)c2ccc(Cl)cc2)c(C#N)c1C", "values": [{"measurement": "inhibition", "setting": "[1]", "result": 60, "unit": "%"}]}
{"smiles": "CCOC(=O)c1sc(NC(=O)c2ccc(F)cc2)c(C(=O)Nc2ccccc2)c1C", "values": [{"measurement": "inhibition", "setting": "[2]", "result": 66, "unit": "%"}, {"measurement": "inhibition", "setting": "[1]", "result": 87, "unit": "%"}, {"measurement": "IC50", "setting": "[3]", "result": 630, "unit": "nM"}]}
{"smiles": "CCOC(=O)c1sc(NC(=O)c2ccc(C)c(OC)c2)c(C#N)c1C", "values": [{"measurement": "inhibition", "setting": "[1]", "result": "inactive"}]}
